In BindingDB's records for patent US20240262804 (Hansoh Bio, 2024):

molecular target: T1, Myosin-7 (Bos taurus, UniProt Q9BE39); assay: Biochemical Assay
T1 construct: gene MYH7
Description: In our experiments, bovine skinned cardiac myofibrils were isolated from the frozen bovine left ventricle as myosin's source in the ATPase assay. […] 75 μL of a solution containing bovine cardiac myofibrils, PK/LDH, and calcium were added to a 96 well plate for a 7 point dose-response. In some circumstances, 10 point-response was used to repeat the ATPase assays on compounds of interest. Compounds were added to the myofibrils solution and incubated for 5 minutes. The enzymatic reaction was started with the addition of 75 μL of a solution containing ATP, PEP, NADH, compounds, and calcium. The ATPase activity was measured by reading absorbance at 340 nm in a PerkinElmer Victor Nivo plate reader at 25° C. in kinetic mode for 15 minutes using clear bottom plates. The slopes of the absorbance changes as a function of time for the first 10 minutes were normalized to slopes on the control wells containing all reagents, including DMSO, but without compounds.

T1 sequence (Q9BE39 whole entry, looked up): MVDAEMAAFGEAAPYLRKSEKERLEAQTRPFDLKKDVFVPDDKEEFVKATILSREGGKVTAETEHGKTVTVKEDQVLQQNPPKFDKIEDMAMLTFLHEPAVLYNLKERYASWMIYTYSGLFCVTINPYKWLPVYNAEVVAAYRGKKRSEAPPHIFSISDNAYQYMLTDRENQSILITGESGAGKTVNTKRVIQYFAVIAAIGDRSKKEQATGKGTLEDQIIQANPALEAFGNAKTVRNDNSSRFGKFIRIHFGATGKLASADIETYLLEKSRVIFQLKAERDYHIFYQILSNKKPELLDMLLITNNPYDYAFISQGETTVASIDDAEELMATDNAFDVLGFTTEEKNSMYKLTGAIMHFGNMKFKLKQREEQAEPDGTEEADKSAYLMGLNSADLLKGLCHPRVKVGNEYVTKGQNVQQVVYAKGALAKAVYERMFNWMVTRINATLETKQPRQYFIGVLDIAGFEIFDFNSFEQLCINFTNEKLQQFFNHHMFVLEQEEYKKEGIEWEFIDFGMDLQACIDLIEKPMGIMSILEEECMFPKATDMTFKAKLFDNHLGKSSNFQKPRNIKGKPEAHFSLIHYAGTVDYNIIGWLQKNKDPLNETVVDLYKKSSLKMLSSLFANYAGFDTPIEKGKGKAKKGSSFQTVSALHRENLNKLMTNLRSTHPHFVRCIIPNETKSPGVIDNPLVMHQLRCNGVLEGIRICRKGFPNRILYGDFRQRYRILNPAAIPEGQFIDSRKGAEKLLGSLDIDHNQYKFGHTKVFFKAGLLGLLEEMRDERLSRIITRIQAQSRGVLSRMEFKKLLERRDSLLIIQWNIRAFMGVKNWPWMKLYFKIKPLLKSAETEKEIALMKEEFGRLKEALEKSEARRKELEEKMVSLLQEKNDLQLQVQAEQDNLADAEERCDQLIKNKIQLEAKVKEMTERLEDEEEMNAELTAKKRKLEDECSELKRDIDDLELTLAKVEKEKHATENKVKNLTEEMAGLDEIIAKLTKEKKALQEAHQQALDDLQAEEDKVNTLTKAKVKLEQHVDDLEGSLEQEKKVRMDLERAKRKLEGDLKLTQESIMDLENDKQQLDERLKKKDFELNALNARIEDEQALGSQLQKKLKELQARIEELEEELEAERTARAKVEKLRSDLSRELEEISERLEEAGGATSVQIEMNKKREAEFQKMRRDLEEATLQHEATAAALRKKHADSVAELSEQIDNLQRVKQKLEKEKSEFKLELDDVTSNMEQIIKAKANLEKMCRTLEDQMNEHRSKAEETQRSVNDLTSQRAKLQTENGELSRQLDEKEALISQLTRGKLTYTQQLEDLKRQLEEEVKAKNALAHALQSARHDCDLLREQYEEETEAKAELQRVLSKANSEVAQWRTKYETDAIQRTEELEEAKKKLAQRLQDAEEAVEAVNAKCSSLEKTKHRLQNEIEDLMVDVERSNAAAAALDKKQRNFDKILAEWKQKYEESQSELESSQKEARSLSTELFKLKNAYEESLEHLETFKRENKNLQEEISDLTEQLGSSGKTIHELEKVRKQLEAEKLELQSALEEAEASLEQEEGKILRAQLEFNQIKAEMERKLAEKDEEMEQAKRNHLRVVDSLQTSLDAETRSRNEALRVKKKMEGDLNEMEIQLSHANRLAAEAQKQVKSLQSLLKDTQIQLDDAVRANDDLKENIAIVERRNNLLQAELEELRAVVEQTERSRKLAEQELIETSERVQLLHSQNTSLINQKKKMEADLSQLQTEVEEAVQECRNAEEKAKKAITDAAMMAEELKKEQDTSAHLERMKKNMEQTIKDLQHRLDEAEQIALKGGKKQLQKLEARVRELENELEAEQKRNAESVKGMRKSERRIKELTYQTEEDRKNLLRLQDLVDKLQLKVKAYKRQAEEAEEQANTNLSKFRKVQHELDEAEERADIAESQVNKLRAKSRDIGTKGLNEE

Point of comparison: Cc1nn(C)cc1-c1cccc([C@H](C)Nc2nc(=O)n(C3CCOCC3)c(=O)[nH]2)c1 [US20240262804, Example 5], IC50 3590 nM. Against it:
- C[C@H](Nc1nc(=O)n(-c2ccccc2)c(=O)[nH]1)C1CCCCC1 [US20240262804, Example 1] — 2.2-fold higher, 8050 nM
- CC(C)C(O)c1cccc([C@H](C)Nc2nc(=O)n(C3CCOCC3)c(=O)[nH]2)c1 (some centres undefined) [US20240262804, Example 9] — 3-fold lower, 1180 nM
- C[C@H](Nc1nc(=O)n(C2CCOCC2)c(=O)[nH]1)c1ccc(F)cc1Cl [US20240262804, Example 162] — 3-fold lower, 1210 nM
- C[C@H](Nc1nc(=O)n(C2CCOCC2)c(=O)[nH]1)c1cc(Cl)ccc1Cl [US20240262804, Example 163] — 3.9-fold lower, 930 nM
- Cc1cccc([C@H](C)Nc2nc(=O)n(C3CCOCC3)c(=O)[nH]2)c1 [US20240262804, Example 4] — 4.5-fold lower, 800 nM
- C[C@H](Nc1nc(=O)n(C2CCOCC2)c(=O)[nH]1)c1cccc(C(C)(C)O)c1 [US20240262804, Example 8] — within 1.5-fold, 2460 nM
- C[C@H](Nc1nc(=O)n(CC(F)(F)F)c(=O)[nH]1)c1ccc(Cl)c(Cl)c1 [US20240262804, Example 173] — within 1.5-fold, 2850 nM
- Cc1ccn(-c2cccc([C@H](C)Nc3nc(=O)n(C4CCOCC4)c(=O)[nH]3)c2)n1 [US20240262804, Example 6] — within 1.5-fold, 4010 nM
